Values of other authors, collected in patent US12220388B2, “Uses of curcuminoid compositions” (Givaudan France Naturals SAS, priority 2018, dated 2025).

Test system: Caco-2 cells

COc1cc(/C=C/C(=O)CC(=O)/C=C/c2ccc(O)c(OC)c2)ccc1O [curcumin]
predicted absorption in humans (from correlation of Caco-2 Papp with human absorption in vivo): 0-20% | Papp (apparent permeability coefficient) (in vitro human intestinal cells model): 0.1 ×10⁻⁶ cm/s
